Tests used:
human skin explants = test: Pigmentation gene expression in human skin explants; assay type: cell-based; conditions: compared with Stem Cell Factor & Endothelin (Endo-SCF), FIG. 5
Text: FIG. 5 is a graphical illustration depicting the effect of dobutamine on human skin explants.
As stated above, ADRβ1 and ADRβ2 stimulation result in elevated cAMP levels which drive tyrosinase production in known melanogenesis pathways.

B16-F1 cells = test: B16 cell melanin synthesis assay; assay type: cell-based, murine; conditions: FIG. 4; for effect on melanin synthesis (% MS): increasing concentration (w/v %)
Text: Determining test agents suitable as ADRβ1 antagonists, ADRβ2 antagonists, or combinations thereof may utilize a melanin synthesis assay selected from the group consisting of a B16 cell assay or a skin model. The B16-F1 cells, which are murine melanoma cells obtained from American Tissue Culture Collection (ATCC), contain the synthetic machinery for melanin production and respond to some benchmark whitening/tanning agents. The following experiment depicts one exemplary method of determining the effect of test agents on melanin synthesis. In the experiment, 0.5 mL of B16-F1 cells are added to 29.5 ml of B16-F1 culture media to 2 separate T-150 flasks, and grown to near (˜80% ) confluency. The culture media B16-F1 comprises the following components as shown in Table 1 below: The cells from the T-150 flasks were trypsinized and counted with a hemacytometer. Then, cell vials (1×10^6 cell aliquots) were frozen in a mixture comprising 95% B16-F1 culture medium and 5% DMSO (Dimethyl sulfoxide) and placed in liquid Nitrogen. All cell culture reagents (except trypsin) were heated in a 37° C. water bath. On day zero, 29 mL of B16-F1 culture media was placed into a T-150 flask at 37° C. Then, a vial of the frozen cells was obtained, thawed in a 37° C. water bath, and placed in the T-150 flask. The flask was agitated to mix the cells with the media, and then the flask was incubated for 3 days at 37° C. in a humidified environment comprising 5% CO2. On day 3, the cells from the flask were trypsinized and the cell density was determined. At which point, the cells were split into a 96-well plate with 2,500 cells per well. At day 5, the cells were treated with the test agents. On day 7, the cells were assayed for melanin production and toxicity. […] As stated above, ADRβ1 and ADRβ2 stimulation result in elevated cAMP levels which drive tyrosinase production in known melanogenesis pathways.

ADRβ1 receptors = ADRβ1 receptors (Homo sapiens, UniProt P08588); test: ADRβ1 receptor antagonist screening (half maximal inhibitory concentration); assay type: binding
ADRβ1 receptors, sequence (P08588 whole entry): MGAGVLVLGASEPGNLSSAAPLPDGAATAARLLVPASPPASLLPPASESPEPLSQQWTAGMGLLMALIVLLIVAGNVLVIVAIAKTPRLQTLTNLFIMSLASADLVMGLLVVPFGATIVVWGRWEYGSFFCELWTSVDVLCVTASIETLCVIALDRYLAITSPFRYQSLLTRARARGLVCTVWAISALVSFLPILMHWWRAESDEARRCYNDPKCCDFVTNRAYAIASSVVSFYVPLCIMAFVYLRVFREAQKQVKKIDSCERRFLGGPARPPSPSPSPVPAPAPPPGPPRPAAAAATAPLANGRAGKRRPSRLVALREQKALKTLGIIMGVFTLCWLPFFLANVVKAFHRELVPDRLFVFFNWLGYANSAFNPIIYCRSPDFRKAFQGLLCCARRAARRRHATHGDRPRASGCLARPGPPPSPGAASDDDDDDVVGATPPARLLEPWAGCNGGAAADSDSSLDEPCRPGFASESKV
Text: Based on these inventive discoveries, a screening method for determining at least one test agent effective for modifying the appearance of pigmented skin is provided. The method comprises contacting a cell, a cell culture, or bulk cells with the test agent, wherein the cell, the cell culture, or the bulk cells comprise ADRβ1 receptors, and determining based on the binding interaction of the test agent with the ADRβ1 receptors whether the test agent is an effective ADRβ1 receptor antagonist suitable for modifying the appearance of pigmented skin, wherein a test agent is considered to be an effective ADRβ1 receptor antagonist when it defines a half maximal inhibitory concentration of less than about 1000 ppm.
The method further comprises determining whether test agents are effective for improving the appearance of pigmented skin if the test agent is an antagonist of the ADRβ1 receptors. In one embodiment, the test agent may be identified as an ADRβ1 receptor antagonist if the test agent defines a half maximal inhibitory concentration (IC50) of less than about 1000 ppm. In further embodiments, the ADRβ1 receptor antagonist defines a half maximal inhibitory concentration of less than about 100 ppm, or less than about 50 ppm. By utilizing this metric of maximal inhibitory concentration, it is possible to correlate the antagonistic activity of the ADRβ1 receptor antagonists with an ability of the ADRβ1 receptor antagonists to improve the appearance of hyper-pigmented spots in human skin. In further embodiments, when the ADRβ1 receptor antagonists bind to the ADRβ1 receptors, a luminescent reference signal may be generated, which may be measured by a luminometer, a fluorescence plate reader, or a fluorometer.
As shown below in Table 2, the present inventors have further recognized that modifying a test agent from a peptide to a palmitoylated peptide greatly improves its efficacy as an ADRβ1 inhibitor.

ADRβ1 IC 50 (ppm) (ADRβ1 receptors) | Compound | further results
45 ppm | AcetylGQPR [acetyl-modified GQPR peptide] | –
1100 ppm | GHK | –
3.3 ppm | palGHK | –

The next lines start with the compound.

Compound | ADRβ1 IC 50 (ppm) (ADRβ1 receptors) | further results
CC(CCc1ccc(O)cc1)NCCc1ccc(O)c(O)c1 (stereo not shown) [dobutamine] | – | pigmentation gene expression (human skin explants): induces pigmentation gene expression in human skin explants more than the paracrine factors; effect on melanin synthesis (% MS) (B16-F1 cells): increases the melanin synthesis
CC(C)NCC(O)c1ccc(O)c(O)c1 (stereo not shown) [isoprenaline] | – | melanin synthesis (% MS) (B16-F1 cells; as the concentration of isoprenaline increased): ~300%; effect on melanin synthesis (% MS) (B16-F1 cells): increases the melanin synthesis
AcetylGHK | 45 ppm | –
GQPR | 1200 ppm | –
palGQPR [palmitoylated GQPR peptide] | 0.23 ppm | –
